Here are results for eleven compounds from patent US20110112308A1 (NOVARTIS AG, priority 2006, published 2011).

Holding throughout (assay type): physicochemical
Series [1] is described as follows: Intrinsic dissolution rate, rotation disk method. The method, then:
Intrinsic Dissolution: […] […] Pellets of the other salts remained intact for at least several minutes enabling the determination of the intrinsic dissolution rate. Dissolution rate studies were performed using the rotation disk method ([…] Instrument). A single rotation speed of 200 r.p.m. was used to dissolve drug substance into a 500 mL vessel at 37° C. The solution was continuously pumped through a UV cell measurement and returned to the dissolution vessel.

Series [2] is described as follows: Stability of mixtures with excipients. The method, then:
(§1) All samples were prepared/diluted to a concentration of 0.2 mg/mL in methanol prior to analysis by HPLC. A freshly prepared sample of each salt was used as the reference standard for external standard calibration analysis.

Series [3] is described as follows: Solubility, 24-hour equilibration at room temperature. The method, then:
Aqueous Solubility: A carefully weighted amount (20-50 mg) of sample is dissolved in 1 ml of solvent with 24-hour equilibration at room temperature. The solubility was determined either gravimetrically or by UV-VIS spectrometry. The pH of the clear solution was also measured. However, the difficulty of determining salt solubilities in water should be stressed, since upon dissolution dissociation to the free form is possible, which affects both the solubility and the pH. It's not unlikely that attempts to make solutions of a salt at a concentration well below the reported solubility of the salt to be unsuccessful (for a full discussion see: M. Pudipeddi, A. T. M. Serajuddin, D. J. W. Grant, and P. H. Stahl in “Handbook of Pharmaceutical Salts Properties Selection and Use” page 27 and references therein).

Series [4] can be described thus: Solution stability (HPLC). On the procedure:
as §1

Series [5] in a line: Solid samples held at 93% r.h. (XRPD, TGA). The conditions noted are these: for Solid State (EQ 93% r.h.) Crystallinity by XRPD: either 7 or 10 days. The method, then: An approximate solubility of the below-listed salts was determined in water and at pH 1 by suspending 5-15 mg of the salt in 1 mL of solvent. The samples were allowed to equilibrate at ambient temperature for at least 20 hours. The supernatant was filtered and used for the solubility determination, which was done gravimetrically, for the aqueous solubility, and by UV-VIS spectroscopy for pH 1. The solid residue was analyzed by XRPD. […] They were subsequently analyzed by XRPD and TGA, if the latter deemed necessary. Only irreversible or slowly reversible events can be detected.

Another series is described as follows: Solid-state stability. Particulars: for Bulk stability (XRPD): 1 week. The method, then: as §1
The mark [6] stands for this setting: Mixture 1: 50% PVP + 50% Crospovidone, 50° C./75% r.h., 2 weeks.
[7] abbreviates: Mixture 2: 50% Starch 1500 + 5% MCC 102, 50° C./75% r.h., 2 weeks.
Where [8] appears, read: Mixture 3: 5% PVP + 5% Crospovidone + 10% Starch 1500 + 80% MCC 102, 50° C./75% r.h., 2 weeks.
Where [9] appears, read: Mixture 4: 99% Lactose + 1% BHT/BHA, 50° C./75% r.h., 2 weeks.
[10] abbreviates: Mixture 5: 99% Mannitol + 1% BHT/BHA, 50° C./75% r.h., 2 weeks.
[11] abbreviates: Mixture 6: 50% Mannitol + 47% HPCLH21 + 1% BHT/BHA + 2% Magnesium Stearate, 50° C./75% r.h., 2 weeks.
Where [12] appears, read: Mixture 7: 50% Cetyl Alcohol + 49% HPCLH21 + 1% Magnesium Stearate, 50° C./75% r.h., 2 weeks.
The mark [13] stands for this setting: Mixture 8: 100% PEG 3350, 50° C./75% r.h., 2 weeks.
[14] abbreviates: Bulk stability, 2 weeks, 50° C.
The mark [15] stands for this setting: Bulk stability, 2 weeks, 50° C./20% water.
Setting [16] is: Bulk stability, 2 weeks, 50° C./75% r.h.
Setting [17] is: Light study, 1200 kLux (300-800 nm).
Where [18] appears, read: 2 mg/mL in methanol, 1 week at 50° C.
Where [19] appears, read: 2 mg/mL in water, 1 week at 50° C.
Where [20] appears, read: 2 mg/mL, 100 mM lactate buffer pH 3.5, 1 week at 50° C.
The mark [21] stands for this setting: 2% in 0.5% HPMC 4000, 1 day at RT.
The mark [22] stands for this setting: 2% in 0.5% Klucel HF, 1 day at RT.
Setting [23] is: 2% in 0.8% Tween 80, 1 day at RT.
[24] abbreviates: 5% solution, 1 day at RT (diluted 1:100 in pH 6.8 buffer).

As to `CC(O)C(=O)O.Cc1[nH]c2ccccc2c1CCNCc1ccc(/C=C/C(=O)NO)cc1` [DL-lactate salt, lactate salt of N-hydroxy-3-[4-[[[2-(2-methyl-1H-indol-3-yl)ethyl]amino]methyl]phenyl]-2E-2-propenamide], the “intrinsic dissolution (rate), in words” value in series [1] is reported as “good”. Moreover, the “stability with all excipient mixtures tested, in words” value in series [2] (after 2 weeks at 50° C./75% r.h.) was “very good stability”. The “aqueous solubility, in words” value in series [3] is “excellent”. The “stability characteristics, in words” value in series [4] (both in solution and in the solid state) is “very good stability”.

Consider `Cc1[nH]c2ccccc2c1CCNCc1ccc(/C=C/C(=O)NO)cc1.Cc1[nH]c2ccccc2c1CCNCc1ccc(/C=C/C(=O)NO)cc1.O=C(O)CC(=O)O` [Malonate, 2:1 malonate (hemi-malonate) salt of N-hydroxy-3-[4-[[[2-(2-methyl-1H-indol-3-yl)ethyl]amino]methyl]phenyl]-2E-2-propenamide], for which the “Solid State (EQ 93% r.h.) Form by XRPD” value in series [5] (10 days) was “No change”.

For `Cc1[nH]c2ccccc2c1CCNCc1ccc(/C=C/C(=O)NO)cc1.Cc1[nH]c2ccccc2c1CCNCc1ccc(/C=C/C(=O)NO)cc1.O=C(O)CCC(=O)O` [Succinate, 2:1 succinate (hemi-succinate) salt of N-hydroxy-3-[4-[[[2-(2-methyl-1H-indol-3-yl)ethyl]amino]methyl]phenyl]-2E-2-propenamide], the “Solid State (EQ 93% r.h.) Form by XRPD” value in series [5] (10 days) is reported as “No change”.

“1:1 propionate salt of N-hydroxy-3-[4-[[[2-(2-methyl-1H-indol-3-yl)ethyl]amino]methyl]phenyl]-2E-2-propenamide”: the “Solid State (EQ 93% r.h.) Crystallinity by XRPD” value in series [5] is on record as “Poor”.

`Cc1[nH]c2ccccc2c1CCNCc1ccc(/C=C/C(=O)NO)cc1.Cc1[nH]c2ccccc2c1CCNCc1ccc(/C=C/C(=O)NO)cc1.O=C(O)/C=C/C(=O)O` [Fumarate, 2:1 fumarate salt (hemi-fumarate) of N-hydroxy-3-[4-[[[2-(2-methyl-1H-indol-3-yl)ethyl]amino]methyl]phenyl]-2E-2-propenamide]: in series [5] (10 days), the “Solid State (EQ 93% r.h.) Form by XRPD” value is listed as “No change”.

For `Cc1[nH]c2ccccc2c1CCNCc1ccc(/C=C/C(=O)NO)cc1.O=P(O)(O)O` [Phosphate, 1:1 phosphate salt of N-hydroxy-3-[4-[[[2-(2-methyl-1H-indol-3-yl)ethyl]amino]methyl]phenyl]-2E-2-propenamide], the “Solid State (EQ 93% r.h.) Form by XRPD” value in series [5] (7 days) is “No change”.

With `Cc1[nH]c2ccccc2c1CCNCc1ccc(/C=C/C(=O)NO)cc1.O=C(O)c1ccccc1` [Benzoate, 1:1 benzoate salt of N-hydroxy-3-[4-[[[2-(2-methyl-1H-indol-3-yl)ethyl]amino]methyl]phenyl]-2E-2-propenamide], in series [5] (7 days), the “Solid State (EQ 93% r.h.) Form by XRPD” value is on record as “No change”.

As to `Cc1[nH]c2ccccc2c1CCNCc1ccc(/C=C/C(=O)NO)cc1.O=C(O)c1cc(O)ccc1O` [Gentisate, 1:1 gentisate salt of N-hydroxy-3-[4-[[[2-(2-methyl-1H-indol-3-yl)ethyl]amino]methyl]phenyl]-2E-2-propenamide], the “Solid State (EQ 93% r.h.) Form by XRPD” value in series [5] (10 days) is “No change”.

For `CC(O)C(=O)O.Cc1[nH]c2ccccc2c1CCNCc1ccc(/C=C/C(=O)NO)cc1` [Anhydrous DL-lactate salt, 1:1 anhydrous DL-lactate salt of N-hydroxy-3-[4-[[[2-(2-methyl-1H-indol-3-yl)ethyl]amino]methyl]phenyl]-2E-2-propenamide], the Intrinsic Dissolution Rate in series [1] (0.1N HCl (Table 19)) was found to be 0.13; in series [1] (Water (Table 19)), 0.14; in series [1] (pH = 4 (Table 19)), 0.09.

`CC(O)C(=O)O.Cc1[nH]c2ccccc2c1CCNCc1ccc(/C=C/C(=O)NO)cc1.O` (racemic) [Monohydrate DL-lactate salt, 1:1 monohydrate DL-lactate salt of N-hydroxy-3-[4-[[[2-(2-methyl-1H-indol-3-yl)ethyl]amino]methyl]phenyl]-2E-2-propenamide]: the Intrinsic Dissolution Rate in series [1] (0.1N HCl (Table 19)) came to 0.02; in series [1] (Water (Table 19)), 0.06; in series [1] (pH = 4 (Table 19)), 0.08. Moreover, the “% DP (total degradation products)” value is listed as 0.6 % area in series [2] (setting [6]); 0.4 % area in series [2] (setting [7]); 0.5 % area in series [2] (setting [8]); 0.5 % area in series [2] (setting [9]); 0.5 % area in series [2] (setting [10]); 0.6 % area in series [2] (setting [11]). The “% DP (total degradation products)” value was found to be 0.5 % area in series [2] (setting [12]); 0.6 % area in series [2] (setting [13]); 0.4 % area in series [2] (Standard, freshly prepared); 0.43 % area in the series “Solid-state stability” (setting [14]); 0.51 % area in the series “Solid-state stability” (setting [15]); 0.43 % area in “Solid-state stability” (setting [16]). Also, the “% DP (total degradation products)” value in “Solid-state stability” (setting [17]) came out at 1.68 % area; in series [4] (setting [18]), 0.71 % area; in series [4] (setting [19]) it was 1.22 % area; in series [4] (setting [20]) it was 1.31 % area; in series [4] (2% in 0.5% CMC, 1 day at RT), 0.49 % area; in series [4] (setting [21]) it was 0.41 % area. Also, the “% DP (total degradation products)” value came to 0.43 % area in series [4] (setting [22]), 0.42 % area in series [4] (setting [23]) and 0.52 % area in series [4] (setting [24]). Moreover, the “% DS (drug substance)” value in series [2] (setting [6]) is recorded as 99.4 % area; in series [2] (setting [7]) it was 99.6 % area; in series [2] (setting [8]), 99.5 % area; in series [2] (setting [9]), 99.5 % area; in series [2] (setting [10]), 99.5 % area; in series [2] (setting [11]), 99.3 % area. Further, the “% DS (drug substance)” value is given as 99.5 % area in series [2] (setting [12]); 99.4 % area in series [2] (setting [13]); 99.6 % area in series [2] (Standard, freshly prepared). Moreover, the “Bulk stability (XRPD)” value in the series “Solid-state stability” (80° C.) and in the series “Solid-state stability” (80° C./75% r.h.) was “no change” in each case. For the same compound, the assay entry in the series “Solid-state stability” (setting [14]) is “[99.31]”; in “Solid-state stability” (setting [15]), “[100.3]”; in the series “Solid-state stability” (setting [16]), “[99.86]”; in “Solid-state stability” (setting [17]) it was “[98.65]”; in series [4] (setting [18]), “[102.8]”; in series [4] (setting [19]), “[98.85]”. Moreover, the assay entry in series [4] (2 mg/mL, 100 mM lactate buffer pH 3.5, 1 week at 50° C., external standard) was “[99.12]”; in series [4] (2% in 0.5% CMC, 1 day at RT) it was “[77.50]”; in series [4] (setting [21]), “[96.42]”; in series [4] (setting [22]), “[96.99]”; in series [4] (setting [23]) it was “[95.06]”; in series [4] (setting [24]), “[99.24]”. The “CL (appearance)” value in “Solid-state stability” (setting [17]) is given as “C (C = medium discoloration)”; in series [4] (setting [19]), “A↓”; in series [4] (setting [20]), “A↓*”; in series [4] (2% in 0.5% CMC, 1 day at RT), “A↓↓”; in series [4] (setting [24]), “A↓”. The “pH of initial mixture” value in series [4] (2 mg/mL in 100 mM lactate buffer, pH 3.5) came out at 3.57; in series [4] (2 mg/mL in water), 6.30. In addition, in series [4] (unstressed baseline of the stability study), the “Unstressed (% Area)” value is listed as 99.51% Area.

For `CC(=O)O.Cc1[nH]c2ccccc2c1CCNCc1ccc(/C=C/C(=O)NO)cc1` [Acetate, 1:1 acetate salt of N-hydroxy-3-[4-[[[2-(2-methyl-1H-indol-3-yl)ethyl]amino]methyl]phenyl]-2E-2-propenamide], the “Solid State (EQ 93% r.h.) Crystallinity by XRPD” value in series [5] is recorded as “Good”. Further, the “Solid State (EQ 93% r.h.) Form by XRPD” value in series [5] (either 7 or 10 days (time not given)) is on record as “converted to a new form”. Moreover, the “Solid State (EQ 93% r.h.) LOD by TGA” value in series [5] (after 93% r.h. storage, (105° C.)) is “LOD = 8.8%”.
